Laboratory results published in patent US12391702B2, “Benzo[5,6][1,4]dioxino[2,3-b]pyridine compounds useful as IRAK4 inhibitors” (BRISTOL-MYERS SQUIBB COMPANY, priority 2020, dated 2025).

These compounds were tested against IRAK4 (Homo sapiens (Human), UniProt Q9NWZ3) (assay: IRAK4 Inhibition Assay). Settings: ATP 500 μM; IRAK4 0.6 nM; 60 min at room temperature.
Format: biochemical
Protocol: The assays were performed in U-bottom 384-well plates. The final assay volume was 30 μL prepared from 15 μL additions of enzyme and substrates (fluoresceinated peptide and ATP) and test compounds in assay buffer (20 mM HEPES pH 7.2, 10 mM MgCl2, 0.015% Brij 35 and 4 mM DTT). The reaction was initiated by the combination of IRAK4 with substrates and test compounds. The reaction mixture was incubated at room temperature for 60 min. and terminated by adding 45 μL of 35 mM EDTA to each sample. The reaction mixture was analyzed on the Caliper LABCHIP® 3000 (Caliper, Hopkinton, MA) by electrophoretic separation of the fluorescent substrate and phosphorylated product. Inhibition data were calculated by comparison to no enzyme control reactions for 100% inhibition and vehicle-only reactions for 0% inhibition. The final concentrations of reagents in the assays are ATP, 500 μM; FL-IPTSPITTTYFFFKKK peptide 1.5 μM; IRAK4, 0.6 nM; and DMSO, 1.6%.

Chain of IRAK4 (Q9NWZ3 whole entry): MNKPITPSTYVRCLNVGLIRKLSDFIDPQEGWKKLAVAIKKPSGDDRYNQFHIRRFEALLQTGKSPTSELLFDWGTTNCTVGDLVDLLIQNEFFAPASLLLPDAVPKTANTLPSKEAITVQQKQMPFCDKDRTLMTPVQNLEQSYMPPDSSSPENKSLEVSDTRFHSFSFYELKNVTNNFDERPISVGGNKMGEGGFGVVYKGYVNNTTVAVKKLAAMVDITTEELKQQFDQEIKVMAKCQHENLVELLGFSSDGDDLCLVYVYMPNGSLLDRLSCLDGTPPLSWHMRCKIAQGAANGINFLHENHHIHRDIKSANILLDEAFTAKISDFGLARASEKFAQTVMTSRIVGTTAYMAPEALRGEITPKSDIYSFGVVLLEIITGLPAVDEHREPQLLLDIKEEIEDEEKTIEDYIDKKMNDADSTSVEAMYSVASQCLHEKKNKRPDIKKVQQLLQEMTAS

| Compound | IC50 [nM] |
| --- | --- |
| CC(C)Nc1c(C(=O)NC[C@@H](F)C(C)(C)O)cnc2c1Oc1ccc(C#N)cc1O2 [Example 2, (R)-8-cyano-N-(2-fluoro-3-hydroxy-3-methylbutyl)-4-(isopropylamino)benzo[5,6][1,4]dioxino[2,3-b]pyridine-3-carboxamide] | 8.5 |
| CC(C)Nc1c(C(=O)NC2CCOCC2)cnc2c1Oc1cc(C#N)ccc1O2 [Example 3, 7-cyano-4-(isopropylamino)-N-(tetrahydro-2H-pyran-4-yl)benzo[5,6][1,4]dioxino [2,3-b]pyridine-3-carboxamide] | 60 |
| CCOCCNC(=O)c1cnc2c(c1NC(C)C)Oc1cc(C#N)ccc1O2 [Example 4, 7-cyano-N-(2-ethoxyethyl)-4-(isopropylamino)benzo[5,6][1,4]dioxino[2,3-b]pyridine-3-carboxamide] | 82 |
| COCCNC(=O)c1cnc2c(c1NC(C)C)Oc1cc(C#N)ccc1O2 [Example 5, 7-cyano-4-(isopropylamino)-N-(2-methoxyethyl)benzo[5,6][1,4]dioxino[2,3-b]pyridine-3-carboxamide] | 150 |
| CC(C)Nc1c(C(=O)N[C@H]2CC[C@H](O)CC2)cnc2c1Oc1cc(C#N)ccc1O2 [Example 6, 7-cyano-N-((1r,4r)-4-hydroxycyclohexyl)-4-(isopropylamino)benzo[5,6][1,4]dioxino[2,3-b]pyridine-3-carboxamide] | 31 |
| CC(C)Nc1c(C(=O)NCC(C)(C)CO)cnc2c1Oc1cc(C#N)ccc1O2 [Example 7, 7-cyano-N-(3-hydroxy-2,2-dimethylpropyl)-4-(isopropylamino)benzo[5,6][1,4]dioxino[2,3-b]pyridine-3-carboxamide] | 270 |
| CC(C)Nc1c(C(=O)NC(CCO)C2CC2)cnc2c1Oc1cc(C#N)ccc1O2 (centres unmarked) [Example 8, 7-cyano-N-(1-cyclopropyl-3-hydroxypropyl)-4-(isopropylamino)benzo[5,6][1,4]dioxino[2,3-b]pyridine-3-carboxamide] | 220 |
| CC(C)Nc1c(C(=O)NC2CCCOC2)cnc2c1Oc1cc(C#N)ccc1O2 (centres unmarked) [Example 9, 7-cyano-4-(isopropylamino)-N-(tetrahydro-2H-pyran-3-yl)benzo[5,6][1,4]dioxino [2,3-b]pyridine-3-carboxamide] | 92 |
| CC(C)Nc1c(C(=O)N[C@H](C)CCO)cnc2c1Oc1cc(C#N)ccc1O2 [Example 10, (R)-7-cyano-N-(4-hydroxybutan-2-yl)-4-(isopropylamino)benzo[5,6][1,4]dioxino [2,3-b]pyridine-3-carboxamide] | 160 |
| CC(C)Nc1c(C(=O)NCC2(CO)CC2)cnc2c1Oc1cc(C#N)ccc1O2 [Example 11, 7-cyano-N-((1-(hydroxymethyl)cyclopropyl)methyl)-4-(isopropylamino)benzo [5,6][1,4]dioxino[2,3-b]pyridine-3-carboxamide] | 440 |
| CC(C)Nc1c(C(=O)NCc2nnc[nH]2)cnc2c1Oc1cc(C#N)ccc1O2 [Example 12, N-((4H-1,2,4-triazol-3-yl)methyl)-7-cyano-4-(isopropylamino)benzo[5,6][1,4]dioxino [2,3-b]pyridine-3-carboxamide] | 140 |
| CC(C)Nc1c(C(=O)NCc2cnco2)cnc2c1Oc1cc(C#N)ccc1O2 [Example 13, 7-cyano-4-(isopropylamino)-N-(oxazol-5-ylmethyl)benzo[5,6][1,4]dioxino[2,3-b]pyridine-3-carboxamide] | 180 |
| Cc1cc(CNC(=O)c2cnc3c(c2NC(C)C)Oc2cc(C#N)ccc2O3)on1 [Example 14, 7-cyano-4-(isopropylamino)-N-((3-methylisoxazol-5-yl)methyl)benzo[5,6][1,4]dioxino[2,3-b]pyridine-3-carboxamide] | 530 |
| CC(C)Nc1c(C(=O)NCCC(C)(C)O)cnc2c1Oc1cc(C#N)ccc1O2 [Example 15, 7-cyano-N-(3-hydroxy-3-methylbutyl)-4-(isopropylamino)benzo[5,6][1,4]dioxino [2,3-b]pyridine-3-carboxamide] | 22 |
| CC(C)CCNC(=O)c1cnc2c(c1NC(C)C)Oc1cc(C#N)ccc1O2 [Example 16, 7-cyano-N-isopentyl-4-(isopropylamino)benzo[5,6][1,4]dioxino[2,3-b]pyridine-3-carboxamide] | 23 |
| CC(C)Nc1c(C(=O)N[C@H]2CC[C@H](N)CC2)cnc2c1Oc1cc(C#N)ccc1O2 [Example 17, N-((1R,4R)-4-aminocyclohexyl)-7-cyano-4-(isopropylamino)benzo[5,6][1,4]dioxino [2,3-b]pyridine-3-carboxamide] | 34 |
| CC(C)Nc1c(C(=O)NCC2(CO)COC2)cnc2c1Oc1cc(C#N)ccc1O2 [Example 18, 7-cyano-N-((3-(hydroxymethyl)oxetan-3-yl)methyl)-4-(isopropylamino)benzo [5,6][1,4]dioxino[2,3-b]pyridine-3-carboxamide] | 240 |
| CC(C)Nc1c(C(=O)NCc2nccs2)cnc2c1Oc1cc(C#N)ccc1O2 [Example 19, 7-cyano-4-(isopropylamino)-N-(thiazol-2-ylmethyl)benzo[5,6][1,4]dioxino[2,3-b]pyridine-3-carboxamide] | 170 |
| CC(C)Nc1c(C(=O)NC2CCNCC2)cnc2c1Oc1cc(C#N)ccc1O2 [Example 20, 7-cyano-4-(isopropylamino)-N-(piperidin-4-yl)benzo[5,6][1,4]dioxino[2,3-b]pyridine-3-carboxamide] | 85 |

What follows are compounds tested on Human whole blood stimulated with a TLR2 agonist (lipoteichoic acid), IL-6 levels (assay: IRAK4 Whole Blood Assay). Settings: 10 μg/mL lipoteichoic acid for 5 hours.
Format: cell-based
Protocol: Human whole blood containing the anti-coagulant ACD-A was plated in 384-well plate (25 μL/well) and incubated with compounds for 60 minutes at 37° C. in a 5% CO2 incubator. The blood was stimulated with a TLR2 agonist, 10 μg/mL final concentration of lipoteichoic acid (Invivogen, San Diego, CA) in 25 μL RPMI (Gibco) for 5 hours in a 5% CO2 incubator. At the end of the incubation, plates were centrifuged at 2300 rpm for 5 minutes. Supernatants were harvested and analyzed for IL-6 levels by Flow Cytometry beads assay (BD Biosciences, San Jose, CA).

| Compound | EC50 [nM] |
| --- | --- |
| CC(C)Nc1c(C(=O)NC[C@@H](F)C(C)(C)O)cnc2c1Oc1ccc(C#N)cc1O2 [Example 2, (R)-8-cyano-N-(2-fluoro-3-hydroxy-3-methylbutyl)-4-(isopropylamino)benzo[5,6][1,4]dioxino[2,3-b]pyridine-3-carboxamide] | 1700 |
